Here are results for 1 compound from patent publication US10344037B2, “Use of the FL-one hundred eighteen core chemical structure platform to generate FL-one hundred eighteen derivatives for treatment of human disease” (priority 2014, dated 2019).

Series [1] concerns human umbilical vein endothelial cells (HUVECS). In words: Cell growth and viability, MTT. It is filed as cell-based. The conditions noted are these: 72 hours.
Series [2] deals with human proteins (MARK3, DDI1, TPD52L2, CACNB1, PGPCR1, USP2, MC2R, FGF18, TP53I3, CNBP, WDR22, PVGCSE-M1, UBE2T, ULP7, RBMS2, BMX, CCNB1IP1). In words: Protein microarray (ProtoArray) with FL118 as a probe. Type of series: binding. The conditions noted are these: over 9,000 human proteins. An excerpt: These targets include, but not limited to, MAP/microtubule affinity-regulating kinase 3 (MARK3), DNA-damage inducible 1 (DDI1), tumor protein D52-like 2 (TPD52L2), calcium channel, voltage-dependent, beta 1 subunit (CACNB1), Probable G-protein coupled receptor 1 (PGPCR1), ubiquitin specific peptidase 2 (USP2), melanocortin 2 receptor (MC2R), Fibroblast growth factor 18 (FGF18), tumor protein p53 inducible protein 3 (TP53I3), CCHC-type zinc finger, nucleic acid binding protein (CNBP), WD repeat domain 22 (WDR22), Potassium voltage-gated channel subfamily E member 1 (PVGCSE-M1), ubiquitin-conjugating enzyme E2T (putative) (UBE2T), Ubiquitin-like protein 7 (ULP7), RNA binding motif, single stranded interacting protein 2 (RBMS2), Cytoplasmic tyrosine-protein kinase (BMX), and cyclin B1 interacting protein 1 (CCNB1IP1).

In a further series the target is Hdm2/HdmX complex (Homo sapiens, UniProt O15151+Q00987). In words: In vitro ubiquitination assay with recombinant proteins.
Chain of Hdm2/HdmX complex (Q00987 whole entry): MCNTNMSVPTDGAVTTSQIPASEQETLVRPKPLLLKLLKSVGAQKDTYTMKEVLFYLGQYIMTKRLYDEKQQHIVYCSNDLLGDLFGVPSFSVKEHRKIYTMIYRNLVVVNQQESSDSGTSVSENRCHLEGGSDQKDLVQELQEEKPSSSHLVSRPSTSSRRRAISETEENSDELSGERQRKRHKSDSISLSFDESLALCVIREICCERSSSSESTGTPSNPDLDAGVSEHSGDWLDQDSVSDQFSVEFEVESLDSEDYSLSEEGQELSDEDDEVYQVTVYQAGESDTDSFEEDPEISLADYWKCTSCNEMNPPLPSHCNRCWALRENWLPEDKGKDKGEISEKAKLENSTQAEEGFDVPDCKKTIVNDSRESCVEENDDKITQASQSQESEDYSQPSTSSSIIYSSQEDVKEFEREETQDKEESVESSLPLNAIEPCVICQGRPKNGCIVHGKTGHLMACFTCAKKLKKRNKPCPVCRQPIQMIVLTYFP
Chain of Hdm2/HdmX complex (O15151 whole entry): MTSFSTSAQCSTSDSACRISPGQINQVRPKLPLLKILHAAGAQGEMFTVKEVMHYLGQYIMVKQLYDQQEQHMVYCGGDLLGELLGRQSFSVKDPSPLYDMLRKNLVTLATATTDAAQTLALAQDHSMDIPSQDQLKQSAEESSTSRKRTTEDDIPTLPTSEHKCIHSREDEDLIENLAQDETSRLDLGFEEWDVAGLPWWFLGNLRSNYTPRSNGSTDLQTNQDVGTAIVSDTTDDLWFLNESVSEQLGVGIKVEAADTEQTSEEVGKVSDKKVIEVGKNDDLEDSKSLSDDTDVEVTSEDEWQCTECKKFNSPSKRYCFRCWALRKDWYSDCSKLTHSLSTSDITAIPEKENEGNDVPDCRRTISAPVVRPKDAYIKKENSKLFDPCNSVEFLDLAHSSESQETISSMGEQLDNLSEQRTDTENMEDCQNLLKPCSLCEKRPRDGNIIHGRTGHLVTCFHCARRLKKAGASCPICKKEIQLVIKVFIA
Series [3] deals with HCT-8 cells. Put plainly: Clonogenic assay, HCT-8 cells with shC or shp53. It is filed as cell-based, human. The settings on record: 0.3 or 10 nM for 3 days, 14-days culture; shC versus shp53.
Experimental: HCT-8 cells are infected with either control lentivirus (shC) or lentivirus expressing shRNA against human p53 (shp53). […] Cell colonies are stained with crystal violet solution after 14-days culture. […] Colonies larger than 50 cells are counted and normalized against non-treatment control group.
Cancer cells are infected with or without lentivirus particles expressing control shRNA or shRNA for p53 knockdown (pLKO.1) followed by selection with puromycin for one week at 5 μg/ml. […] Then the cells are cultured in an incubator at 37° C., 5% CO2 for another two weeks before fixation and staining with crystal violet solution. Colonies are defined as more than 50 cells and/or images are then digitally taken.
The subject of another series is HdmX, Hdm2. Put plainly: HdmX and Hdm2 protein and mRNA levels in HCT-8 cells.
For series [4], the system named is HCT116 colon cancer cells. In words: cells. It is filed as cell-based, human.
Experimental: (§1) Cancer cell viability and growth are determined by MTT assay. […] MTT is used as a colorimetric substrate for measuring cell viability and growth. When cell growth is inhibited, there is an alteration of cellular redox activity, and thus rendering cells unable to reduce the MTT dye. Cells are seeded in 96 well plates overnight and then treated with or without a compound/drug in the presence or absence of an protein molecule inhibitor (e.g. ABCG2 inhibitor ko143) for 48-72 hours, MTT is added to a final concentration 0.5 mg/ml. Cells are continuously incubated in a 5% CO2 incubator at 37° C. for 4 h with MTT and then lysed with a cell lysis buffer (20% SDS, 50% N,N-dimethylformamide, pH 4.7), 100 μl per well, for 4 h in the incubator. Subsequently, cell absorbance in each well is measured at 570 nm with an Ultra Microplate Reader (Bio-Tek Instruments). Results are reported as the mean±SD from 3-5 independent assays at each point. […] After 72 hours, media is removed and cells are harvested using 0.5 ml of 0.25% Trypsin-EDTA. Cells are counted and viability is analyzed on a Vi-CELL XR Cell Viability Analyzer (Beckman Coulter).
In series [5] the test system is human EU-4 acute lymphocytic leukemia. Put plainly: EU-4 acute lymphocytic leukemia (ALL) mouse model. The settings on record: IV, q2×5. It is filed as in vivo, SCID mice. An excerpt: The EU-4 cells are intraperitoneally injected (5×10^6 per SCID mouse). […] Body weight changes, belly enlargement and overall mouse survival status are documented every 2-3 days throughout the experiment period.
Of note, “died with ascites” means mice at a moribund/dying state and then being euthanized. This is because moribund mice need to be euthanized based on the animal protocol rule.

Series [6] deals with HCT-8 cells. Put plainly: Colony formation after 2 h or 6 h drug treatment. The settings on record: 2 h or 6 h treatment, 2 weeks growth. Type of series: cell-based, human. On the procedure: Subconfluent SW620, HCT-8, and HCT-116 cells were lysed and analyzed for the expression of MDR1 and ABCG2 using western blots (WB). Actin is the internal control. […] Cell growth/viability was then analyzed by MTT assays. Each time point in the individual curve is the mean±SD from 3 to 5 independent assays. […] Drugs were then washed out and cells were allowed to grow in new medium without drugs for 2 weeks. Cell colonies were stained with crystal violet solution; images were digitally taken. Triplicate results are shown.
Cell growth is then measured and the data are plotted as percentage of growth inhibition (no drug treatment was set at 0%). […] C. […] Representative cancer cell images were taken with a digital camera under phase-contrast microscope.

A further series is described as follows: in vivo. The settings on record: weekly×4. On the procedure: Individual tumor curves derived from individual mice are shown. A. Mice with FaDu head-&-neck tumor xenografts were first treated with irinotecan at its maximum tolerated dose (MTD, 100 mg/kg, IP) weekly for 4-5 times (black arrow). […] B. Mice with FaDu tumor xenografts were first treated with topotecan at its MTD (4 mg/kg, IP) via daily×5 schedules for 4 cycles (each black arrow is one cycle). […] C. Mice with SW620 CRC xenografts were first treated with irinotecan at its MTD (IP, weekly×4, black arrow). […] D. Mice with SW620 xenograft tumors were first treated with topotecan at its MTD.

Series [7] has as its system ABCC4 or ABCG2 in HCT-8 colon cancer cells. In words: MTT assay of HCT-8 cells transfected with ABCC4 or ABCG2. Type of series: cell-based, human. The settings on record: 72 hours. As for the experimental part:
HCT-8 colon cancer cells are transfected with empty vector (pcDNA3.1), ABCC4 or ABCG2 expression vectors as shown. […] Cell growth/viability is then determined by MTT assay.
A general note: Formazan colour is commonly taken as a measure of viable cells.

In another series the test system is cancer cells. In words: Cell growth and viability, MTT. Type of series: cell-based, human. The conditions noted are these: 72 hours. On the procedure:
Actin is an internal control for equal protein loading. […] Subconfluent cancer cells as shown are treated with a series of concentrations of crolibulin as shown (0-100 μM) for 72 hours. Cell growth and viability are determined via MTT assay. Each curve is the mean±SD from 4 independent assays.
Crolibulin is an anticancer drug that targets endothelial cells of the cancer vasculature system. Therefore, crolibulin is considered as a vascular disrupt agent (VDA).

The nature of series [8]: Lactone ring stability in formulated solution by mass spectrometry. It is filed as physicochemical. The conditions noted are these: formulated solution on shelf for 30 days at room temperature. As for the experimental part: Mass spectrometry (MS) parameters are used as follows. Bruker Esquire, ion trap; Infusion Flow Rate, 5 μl/min; Ion Polarity, Positive; Ion Source Type, ESI; Dry Temp, 300 deg C.; Nebulizer, 8.00 psi; Dry Gas, 7.00 Umin; HV Capillary, 4000 V; HV End Plate, −500 V; Scan Begin, 100.00 m/z; Average, 30; Max Acc Time, 400 us; and ICC Target, 50000. MS scan is in both negative ion mode and positive ion mode.

For a further series, the system named is HCT116-C8 cells. In words: cells. Type of series: cell-based, human.
Where [9] appears, read: IC50 of topotecan divided by IC50 of the drug.

Text for FaDu and SW620 tumors: Three types of human cancer xenografts are used in the studies: 1) from human head-&-neck cancer cell line (FaDu)-established xenografts; 2) from human colon cancer cell line (SW620)-established xenografts; and 3) from human acute lymphocytic leukemia cell line (EU-4)-established xenografts. All in vivo experiments use either nude or severe combined immunodeficiency (SCID) mice. Human tumor cell line-derived xenografts are initially established by subcutaneously injecting 1×10^6 cultured cancer cells. The derived tumors are then passed several generations in mice by transplanting 40-50 mg non-necrotic tumor mass via a trocar after the xenograft tumor reached ˜1000 mm^3. Treatment is initiated 7 days after tumor transplantation when the tumor reached 200-250 mm^3, at which time the treatment was designated as Day 0. Six to 12-week-old female SCID mice used in the studies. All animal experiments are performed in accordance with IACUC-approved animal protocols. Mice were housed 5 mice per cage with water and food ad libitum.
Experimental for HCT116-C8 cells: as §1
Experimental for Hdm2/HdmX complex: The ubiquitinated p53 (Ub-p53) bands are detected as shown.
The reaction products are resolved by SDS-PAGE followed by immunoblotting with p53 antibody DO-1. For HdmX ubiquitination in vitro, reactions are performed in a 50-μl volume. After completion of the reactions, 10 μl is used for direct immunoblotting to reveal HdmX ubiquitination (a smearing pattern) with FLAG antibody. 40 μl reactions are used for denaturing with 1% SDS followed by dilution with 800 μl of 20 mM Tris, pH7.5, 0.5% NP40, and 120 mM NaCl. The processed reaction products are used for immunoprecipitation with ubiquitin antibody followed by immunoblotting for FLAG-HdmX using anti-FLAG antibodies.
Experimental for HdmX, Hdm2: Rescue of HdmX degradation by proteasome inhibitor MG132. […] Cell lysates are then analyzed by immunoblotting of HdmX. Actin expression is used as an internal control.

On to `CC[C@@]1(O)C(=O)OCc2c1cc1n(c2=O)Cc2cc3cc4c(cc3nc2-1)OCO4` [FL118], for which the “sensitivity of HUVEC cells” value in [1] is “insensitive to FL118 treatment”. Besides, the biochemical targets identified entry in series [2] is on record as “Revealed Novel FL118 Biochemical Targets”. In addition, in the series with FaDu and SW620 tumors (large tumors, stored FL118 solution, attributed to possible Tumor Lysis Syndrome), the mouse deaths entry is reported as “death of two mice on Day 37”. For the same compound, the “antitumor activity of stored solution” value in the series on FaDu and SW620 tumors (ready-to-use solution stored at 4° C. for 6 months, 1.5 mg/kg weekly for 4 weeks) is listed as “as effective as the newly formulated solution”. The “Hdm2-mediated HdmX ubiquitination in vitro” value on Hdm2/HdmX complex is on record as “stimulates Hdm2-mediated HdmX ubiquitination in a concentration-dependent manner”. In addition, the “Mdm2-MdmX mediated p53 polyubiquitination in vitro” value at Hdm2/HdmX complex is “moderately inhibits”. In the series with HCT-8 cells [3], the clonogenic growth result is given as “inhibits clonogenic growth independent of p53 status”. Further, in the series with HdmX, Hdm2 (FL118 treatment for 8 h), the “mRNA levels of HdmX and p21 (quantitative real time PCR)” value is “does not significantly alter the mRNA levels of HdmX but increases the control gene p21 mRNA levels”. The “time to HdmX downregulation after treatment” value with HdmX, Hdm2 (HCT-8 cells, 100 nM, time course) was no more than 4 h. Besides, the “proteasomal degradation of HdmX and Hdm2” value in the series with HdmX, Hdm2 (HCT-8 cells, 10 and 100 nM) is on record as “promotes proteasomal degradation of HdmX but not Hdm2”. The values for the IC50 (in [4]; with HCT116-C8 cells) were 47.7 pM and 93.7 pM, respectively. Moreover, the results for the RP (in [4] (setting [9]); in the series with HCT116-C8 cells (setting [9])) were 15.67 and 4041, respectively. For the same compound, the “ascites production and animal survival” value in series [5] is “effectively inhibits ascites production and extends animal survival”. Also, in the series on HCT-8 cells [6], the “more effective to inhibit colony formation than topotecan” value is recorded as greater than 100 time. For the same compound, the MTD stood at 5 mg/kg in “in vivo” (IV injection) and 10 mg/kg in “in vivo” (oral). Moreover, the body weight loss entry in “in vivo” (oral administration) is listed as “Minimal Body Weight Loss”. Also, the “effect of forced expression of ABCC4 or ABCG2 on resistance” value in [7] is on record as “fails to increase FL118 resistance”. Further, the “sensitivity of cancer cells” value with cancer cells is “sensitive to FL118 treatment”. Besides, the “lactone versus carboxylate form in solution” value in series [8] is listed as “fully in lactone form”.

The IC50 is the concentration needed to halve the response being measured. A higher IC50 goes with lower potency.
